According to US4870097A, “Pharmaceutical use of derivatives of tryptophan” (priority 1984, dated 1989):

Experiments:
[1] = tested on: activity of analgesic drugs; assay: Hot plate test: potentiation of analgesic drugs; format: in vivo, rats; details: analgesic alone i.p. (Prop 15, Oxy 50, Asa 100 mg/kg); for Positive Total X/25: 10'-60'
Experimental: The method is that described by Eddy et al. (J. Pharmac. Exp. Ther. 107, 385 (1953)).
Groups of five male rats having a weight of about 150 g and which have not been fasting are used.
The animals are placed on a metal plate which is on the bottom of a transparent cylinder heated to 55°±1° C. by an azeotropic boiling mixture (1:1 acetone-ethyl formate). The time which passes between the moment at which the animal is placed on the hot plate and the moment at which it licks its feet or tries to jump out of the cylinder is defined as the reaction time. The control reaction time is measured 10 and 5 minutes before the administration of the drugs and 10, 20, 30, 45, 60, 90 minutes afterwards. The animals are left on the plate for a maximum period of 30 seconds.
The response to the administration of the product is considered positive if at least a doubling of the normal reaction time is seen. The results obtained are given in Table 2 which records the groups treated, the dose administered and the stay times on the plate expressed as the number of positive responses over the number treated.

[2] = tested on: guinea pig gall bladder contracted with CCK-8; assay: Anti-CCK activity on guinea pig gall bladders in vitro; format: biochemical; details: CCK-8 10 ng/ml, concentration antagonising 50% of contracting effect
Experimental: A longitudinal strip of guinea pig gall bladder is placed in a bath of Krebs for isolated organs at a temperature of 32° C. and oxygenated continuously with an oxygen-CO2 mixture (95-5 V/V).
The […] contractions are detected by means of a force transducer and recorded.
The gall bladder is contracted with the use of a CCK-8 solution at a concentration of 10 ng/ml; the antagonistic activity of the compounds of the invention towards the contracting effect of the CCK is determined with the use of different concentrations, the ED50 value, that is the concentration of the compound in mcg/ml capable of antagonising 50% of the contracting effect of the CCK, being determined.
The results obtained are set out in the following table which gives the compounds tested and the ED50 values which are calculated by the method of regression on a test of at least three experiments for each compound studied.

[3] = tested on: analgesic activity of morphine; assay: Tail Flick Test: increase in the analgesic effect of morphine; format: in vivo, rats; details: for percentage variation in the latency of the pain sensation, 10' / percentage variation in the latency of the pain sensation, 20' / percentage variation in the latency of the pain sensation, 30' / percentage variation in the latency of the pain sensation, 45' / percentage variation in the latency of the pain sensation, 60' / percentage variation in the latency of the pain sensation, 90' / M(10'-90') average percentage variation: compound 10 mg/kg i.p. + morphine 2 mg/kg (row Morphine: alone); for percentage variation in the latency of the pain sensation, 10' / percentage variation in the latency of the pain sensation, 20' / percentage variation in the latency of the pain sensation, 30' / percentage variation in the latency of the pain sensation, 45' / percentage variation in the latency of the pain sensation, 60' / percentage variation in the latency of the pain sensation, 90': ± S.E.; for M(10'-90') average percentage variation: mean 10'-90'; for Potency ratio relative to morphine alone: rat, in vivo
Experimental: Increase in the analgesic effect of analgesic-narcotic drugs in rats in the Tail Flick Test
The method is that described by Harris et al. (J. Pharmacol. Exp. Ther. 143 (1964) 141-148).
Male rats are used which have a weight of about 150-200 g and which have not been fasting. A point is chosen on the tail and this is irradiated by a heat source (75° C.) and the time (in seconds) for which the animal remains without moving its tail is measured.
A maximum period of time under the heat source of 8 seconds is chosen after which the animal is, in any case, removed in order to avoid tissue damage. The measurement is effected before (controls) and after treatment with the drugs.
. The percentage variation is calculated for each individual animal by the following formula: [formula] The measurements are carried out 10, 20, 30, 45, 60 and 90 minutes after treatment with the analgesics.
The results obtained are given in Table 1 which records the groups treated and the doses administered, the
average percentage variations (calculated on groups of five animals) in […]

[4] = tested on: tolerance induced by morphine; assay: Antagonism to the development of tolerance to repeated administration of morphine HCl (tail flick); format: in vivo, rats
Experimental: Several of the compounds of the invention were examined to determine any capacity to antagonise the development of tolerance induced by morphine. Groups of six male rats having a weight of about 200-250 were used.
At intervals of 24 hours from the first treatment (time 0), each animal (except for the control group treated with a physiological solution) received 3 mg/kg of morphine hydrochloride i.p. together with 3 mg/kg i.p. of the compounds indicated (with the exception of the group treated solely with morphine).
The determination of the threshold for the pain stimulus was effected at 15°, 30', 45' and 60' intervals from the treatment by the "tail flick" test.

Structure (SMILES) | Anti CCK-8 activity, ED50 [2] | percentage variation in the latency of the pain sensation, 10' [3] | percentage variation in the latency of the pain sensation, 20' [3] | percentage variation in the latency of the pain sensation, 30' [3] | percentage variation in the latency of the pain sensation, 45' [3] | percentage variation in the latency of the pain sensation, 60' [3] | percentage variation in the latency of the pain sensation, 90' [3] | M(10'-90') average percentage variation [3] | Potency ratio relative to morphine alone [3] | also measured
CC(=O)Oc1ccccc1C(=O)O [Acetylsalicylic acid, reference compound] | – | – | – | – | – | – | – | – | – | positive responses over the number treated, 10' [1]: 1/5; Positive Total X/25 [1]: 7; positive responses over the number treated, 20' [1]: 2/5; positive responses over the number treated, 30' [1]: 2/5; positive responses over the number treated, 45' [1]: 2/5; positive responses over the number treated, 60' [1]: 0/5
O=C(N[C@@H](Cc1c[nH]c2ccccc12)C(=O)O)OCc1ccc(Br)cc1 [Compound 3] | 33.6 µg/mL | 70.7 ± 19.7% | 90.3 ± 9.7% | 74.7 ± 16.9% | 86.2 ± 11.0% | 100.0 ± 0.0% | 53.7 ± 17.2% | 79.3% | 2.66 | –
O=C(N[C@@H](Cc1c[nH]c2ccccc12)C(=O)O)OCc1ccc(I)cc1 [Compound 4] | 48.2 µg/mL | 62.8 ± 22.8% | 76.9 ± 14.4% | 85.3 ± 13.9% | 56.4 ± 18.2% | 48.1 ± 16.9% | 19.4 ± 11.1% | 58.2% | 1.95 | –
O=C(N[C@@H](Cc1c[nH]c2ccccc12)C(=O)O)OCc1cccc(Cl)c1 [Compound 5] | 23.2 µg/mL | 34.5 ± 13.3% | 53.0 ± 24.8% | 62.5 ± 16.6% | 50.5 ± 17.6% | 43.7 ± 10.1% | 52.2 ± 22.2% | 50.9% | 1.71 | –
O=C(N[C@@H](Cc1c[nH]c2ccccc12)C(=O)O)OCc1ccc(Cl)c(Cl)c1 [Compound 6] | 16.1 µg/mL | 68.6 ± 20.4% | 78.0 ± 17.9% | 80.4 ± 19.6% | 84.5 ± 11.4% | 76.3 ± 13.8% | 71.9 ± 15.2% | 78.6% | 2.57 | –
O=C(N[C@@H](Cc1c[nH]c2ccccc12)C(=O)O)OCc1ccc(C(F)(F)F)cc1 [Compound 7] | 108.7 µg/mL | 38.3 ± 13.7% | 34.4 ± 5.7% | 44.4 ± 14.8% | 48.3 ± 14.6% | 47.2 ± 16.9% | 47.9 ± 15.4% | 43.4% | 1.45 | –
Cc1ccc(COC(=O)N[C@@H](Cc2c[nH]c3ccccc23)C(=O)O)cc1 [Compound 8] | 114.3 µg/mL | 12.4 ± 4.9% | 38.4 ± 22.2% | 56.5 ± 20.3% | 48.0 ± 26.1% | 48.5 ± 21.5% | 54.4 ± 24.7% | 43.0% | 1.44 | –
CCc1ccc(COC(=O)N[C@@H](Cc2c[nH]c3ccccc23)C(=O)O)cc1 [Compound 9] | 125.4 µg/mL | 46.7 ± 14.7% | 62.2 ± 16.5% | 39.6 ± 15.7% | 86.9 ± 8.0% | 46.7 ± 20.4% | 40.8 ± 22.4% | 53.8% | 1.80 | –
CN1CC[C@]23c4c5ccc(O)c4O[C@H]2[C@@H](O)C=C[C@H]3[C@H]1C5 [Morphine, morphine, reference compound] | – | 10.8 ± 4.0% | 54.2 ± 17.0% | 46.6 ± 21.0% | 41.7 ± 16.0% | 32.0 ± 17.0% | -6.4 ± 10.0% | 29.8% | – | percentage variation in the latency time, day 0 ([4]; day 0, 3 mg/kg i.p. + morphine HCl 3 mg/kg i.p. (row Morphine: alone)): 35.83%; percentage variation in the latency time, day 1 ([4]; day 1, 3 mg/kg i.p. + morphine HCl 3 mg/kg i.p. (row Morphine: alone)): 37.43%; percentage variation in the latency time, day 2 ([4]; day 2, 3 mg/kg i.p. + morphine HCl 3 mg/kg i.p. (row Morphine: alone)): 30.33%; percentage variation in the latency time, day 3 ([4]; day 3, 3 mg/kg i.p. + morphine HCl 3 mg/kg i.p. (row Morphine: alone)): 16.06%; percentage variation in the latency time, day 4 ([4]; day 4, 3 mg/kg i.p. + morphine HCl 3 mg/kg i.p. (row Morphine: alone)): 22.46%; percentage variation in the latency time, day 5 ([4]; day 5, 3 mg/kg i.p. + morphine HCl 3 mg/kg i.p. (row Morphine: alone)): 9.63%; percentage variation in the latency time, day 6 ([4]; day 6, 3 mg/kg i.p. + morphine HCl 3 mg/kg i.p. (row Morphine: alone)): 7.28%; percentage variation in the latency time, day 7 ([4]; day 7, 3 mg/kg i.p. + morphine HCl 3 mg/kg i.p. (row Morphine: alone)): 1.95%; regression line % Effect versus Day ([4]; days 0-7, 3 mg/kg + morphine (row Morphine: alone)): % Effect = - 5.34 Day + 38.72; day on which activity falls to 0 / inactive level is reached ([4]; from the straight lines of regression, groups C, D and E extrapolated): sixth
CCCCC1C(=O)N(c2ccccc2)N(c2ccc(O)cc2)C1=O (centres unmarked) [Oxyphenylbutazone, reference compound] | – | – | – | – | – | – | – | – | – | positive responses over the number treated, 10' [1]: 2/5; Positive Total X/25 [1]: 7; positive responses over the number treated, 20' [1]: 1/5; positive responses over the number treated, 30' [1]: 2/5; positive responses over the number treated, 45' [1]: 2/5; positive responses over the number treated, 60' [1]: 0/5
CCC(=O)O[C@](Cc1ccccc1)(c1ccccc1)[C@H](C)CN(C)C [Propoxyphene, reference compound] | – | – | – | – | – | – | – | – | – | positive responses over the number treated, 10' [1]: 2/5; Positive Total X/25 [1]: 11; positive responses over the number treated, 20' [1]: 2/5; positive responses over the number treated, 30' [1]: 3/5; positive responses over the number treated, 45' [1]: 3/5; positive responses over the number treated, 60' [1]: 1/5
